Data from patent US10227347B2, “Purinyl-N-hydroxyl pyrimidine formamide derivative, preparation methods and uses thereof” (Guizhou Bailing Group Pharmaceutical CO., LTD., priority 2015, dated 2019).

How the values were obtained:
[1] = target: T1, mTOR (Homo sapiens, UniProt P42345); test: mTOR activity inhibition (ULight-4E-BP1 peptide); assay type: biochemical; settings: Table 1, graded
T1 construct: purchased Millipore 14-770
Method: mTOR protein is purchased from Millipore Company (Catalog No.: 14-770). The reaction buffer system comprises 50 mM HEPES, 10 mM MgCl2, 1 mM EGTA, 3 mM […], 0.01% Tween-20 (purchased from Chengdu Kelong Chemical Regent Factory) and 2 mM DTT. The pH value of the reaction buffer is 7.5. Preparing 10 μL reaction system in corresponding wells of the 384 well plate, which contains the compositions as: the compound with designed concentration (or blank control), mTOR protein (with the concentration of 2.5 nM), ULight-4E-BP1 (containing the 37th and the 46th threonine residues, Thr37/46) peptide (purchased from PE Company, Catalog No.: TRF0128-M) and ATP substrates (ULight-4E-BP1 peptide, with the concentration of 50 nM and ATP, with the concentration of […]). Mixing it evenly for incubation under ambient temperature for 1 h; adding 10 μL testing liquid containing EDTA (ethylenediaminetetraacetic acid) and Eu-anti-phosphorylation-4E-BP1 (Thr37/46) antibody (purchased from PE Company, Catalog No.: TRF0216-M) into the reaction wells (after the testing liquid is added, the concentration of EDTA is 8 mM and the concentration of Eu-phosphorylation-4E-BP1 antibody is 2 nM); mixing it evenly and incubating it for 1 h under ambient temperature, then measuring the fluorescence intensity with a microplate reader and analyzing the result data with the software GraphPad Prism.
Calculating the value of IC50 as per the formula: Y=background data+(top data−background data)/(1+10^((Log IC50−X)*rate of curve))
Where, Y refers to the inhibition ratio (%) and X refers to the compound concentration.

[2] = system: human colon cancer hct116 subcutaneous tumor; test: Subcutaneous tumor model, human colon cancer hct116; settings: once per 2 days, intravenous

T1 sequence (P42345 1362-2549 limits assumed): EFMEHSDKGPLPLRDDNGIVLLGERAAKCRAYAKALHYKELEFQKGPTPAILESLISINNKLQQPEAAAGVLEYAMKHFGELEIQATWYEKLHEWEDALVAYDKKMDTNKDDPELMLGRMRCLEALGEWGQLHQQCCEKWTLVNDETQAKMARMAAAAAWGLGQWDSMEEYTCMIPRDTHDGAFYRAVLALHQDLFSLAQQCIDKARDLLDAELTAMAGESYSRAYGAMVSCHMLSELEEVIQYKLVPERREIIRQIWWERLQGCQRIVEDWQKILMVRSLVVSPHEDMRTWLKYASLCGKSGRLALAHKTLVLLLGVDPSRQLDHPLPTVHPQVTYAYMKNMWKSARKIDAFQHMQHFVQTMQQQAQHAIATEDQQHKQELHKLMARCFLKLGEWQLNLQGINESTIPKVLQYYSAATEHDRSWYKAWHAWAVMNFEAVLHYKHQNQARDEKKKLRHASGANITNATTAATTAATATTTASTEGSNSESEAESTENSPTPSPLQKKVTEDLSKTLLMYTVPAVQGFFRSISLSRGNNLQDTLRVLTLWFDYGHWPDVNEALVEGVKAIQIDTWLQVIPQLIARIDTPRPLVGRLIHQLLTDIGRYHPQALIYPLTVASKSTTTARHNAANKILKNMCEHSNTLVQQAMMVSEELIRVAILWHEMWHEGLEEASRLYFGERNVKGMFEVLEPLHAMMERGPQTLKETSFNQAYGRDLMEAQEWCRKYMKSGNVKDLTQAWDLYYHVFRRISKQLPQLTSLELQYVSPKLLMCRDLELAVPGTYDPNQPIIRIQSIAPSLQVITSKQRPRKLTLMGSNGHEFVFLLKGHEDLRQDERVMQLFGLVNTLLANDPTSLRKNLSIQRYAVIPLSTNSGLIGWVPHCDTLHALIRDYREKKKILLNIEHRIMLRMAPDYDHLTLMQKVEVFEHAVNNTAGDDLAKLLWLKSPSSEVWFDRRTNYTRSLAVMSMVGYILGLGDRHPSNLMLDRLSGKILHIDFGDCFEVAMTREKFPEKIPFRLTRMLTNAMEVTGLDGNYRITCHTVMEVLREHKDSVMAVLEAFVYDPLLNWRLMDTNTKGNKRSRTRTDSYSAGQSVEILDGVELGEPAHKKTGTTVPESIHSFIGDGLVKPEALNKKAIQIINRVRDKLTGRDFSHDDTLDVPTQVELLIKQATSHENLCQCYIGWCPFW

| Structure (SMILES) | IC50 [1] | Death ([2]; 2.5 mg/kg) | Inhibitory rate (%) ([2]; 2.5 mg/kg) | Death ([2]; 5 mg/kg) | Inhibitory rate (%) ([2]; 5 mg/kg) | Death ([2]; 10 mg/kg) | Inhibitory rate (%) ([2]; 10 mg/kg) |
| --- | --- | --- | --- | --- | --- | --- | --- |
| COc1ccc(-c2nc(N3CCOCC3)c3nc(CN(C)c4ncc(C(=O)NO)cn4)n(C)c3n2)cn1 [CLJ-1, 2-(((2-(6-methoxypyridine-3-yl)-9-methyl-6-morpholine-9H-purine-8-yl))methyl(methyl)amino)-N-hydroxyl pyrimidine-5-formamide] | 1000 to 10000 nM | – | – | – | – | – | – |
| CN(Cc1nc2c(N3CCOCC3)nc(-c3cnc(N)nc3)nc2n1C)c1ncc(C(=O)NO)cn1 [CLJ-11, 2-(((2-(2-aminopyrimidine-5-yl)-9-methyl-6-morpholine-9H-purine-8-yl))methyl(methyl)amino)-N-hydroxyl pyrimidine-5-formamide] | 100 to 1000 nM | – | – | – | – | – | – |
| CN(Cc1nc2c(N3CCOCC3)nc(-c3ccc(N)cc3)nc2n1C)c1ncc(C(=O)NO)cn1 [CLJ-44] | – | 0/6 | 49.4% | 0/6 | 53.3% | 0/6 | 68.2% |
